Assay results published in EP0026410A1, “Combinations of active ingredients, their preparation and use, as well as pharmaceutical preparations” (F. HOFFMANN-LA ROCHE & CO. Aktiengesellschaft, priority 1979, dated 1981).
In brackets after ≈: the same amount, converted by molar mass. Like-named read-outs stand apart in the source and are kept apart here.

Assays:
Pseudomonas aeruginosa [1] = assay: In vitro M.I.C. of Nocardicin A, peptide and their mixtures against Pseudomonas aeruginosa strains; format: cell-based
Proteus vulgaris = assay: In vitro M.I.C. of Nocardicin A, peptide and mixtures against Proteus vulgaris; format: cell-based
Serratia marcescens = assay: In vitro M.I.C. of Nocardicin A, peptide and mixtures against Serratia marcescens; format: cell-based
Pseudomonas aeruginosa [2] = assay: Microtiter checkerboard method, M.I.C. after 18 h incubation; format: cell-based; details: for MIC: Pseudomonas aeruginosa
Method: Die in vitro Aktivität der erfindungsgemässen Kombinationen kann auch nach der Mikrotiter-Schachbrett-Methode gezeigt werden. Bei dieser Methode werden Filter-sterilisierte Grundlösungen von Verbindungen I und einem Nocardicin-Antibiotikum hergestellt, die 4,8mal so konzentriert sind wie die zu testenden Lösungen. Aliquote Teile des Kulturmediums (50 ul)wurden in alle 12 (1-12) x 8 (A-H) Löcher der Mikrotiter-Platte gegeben, mit Ausnahme des Loches 12H. Jeweils 50 µl der Peptid-Lösung wurden dann in jedes Loch der zwölften Reihe gegeben und 100 µl in das Loch 12H. Die peptidhaltigen Lösungen wurden dann innerhalb der Reihen A-H dadurch verdünnt, dass man jeweils 50 µl aus der Reihe 12 in die Reihe 11 übertrug, gut vermischte, und wieder jeweils 50 µl in die Reihe 10 übertrug und dieses Prozedere bis zur Reihe 2 wiederholte, so dass die Reihe 1 ausgelassen wurde. Dann wurden je 50 µl einer Lösung eines Nocardicin-Antibiotikums in jedes Loch der Reihe H gegeben und ebenfalls in der vorstehend beschriebenen Weise verdünnt innerhalb der Reihen 1-12, wobei das letzte Loch in jeder Reihe wiederum ausgelassen wurde. Nachdem die Volumina überall durch Zusatz von 50 ul Nährflüssigkeit auf 100 µl gebracht wurden, wurden jeweils 20 µl einer 1/1000 Verdünnung einer über Nacht angesetzten Kultur eines Testorganismus zugesetzt. Durch Schütteln wurde für eine gleichmässige Verteilung gesorgt, woraufhin die Platten mit Klebstreifen verschlossen wurden. Die minimalen Hemmkonzentrationen wurden als diejenigen minimalen Konzentrationen bestimmt, die nach 18-stündiger Inkubation der Kulturen eine sichtbare Trübung verhinderten. Die Ergebnisse mit (1R)-1-(L-Norvalylamino)-ethylphosphonsäure und Nocardicin D sind in der Tabelle V zusammengestellt.

P. mirabilis = assay: In vitro M.I.C. of Nocardicin A, peptide and mixtures against Proteus species; format: cell-based
P. morganii = assay: as above; format: cell-based; details: Morganella morganii; P. morganii Stamm 501041; substance alone
P. rettgeri = assay: as above; format: cell-based; details: Providencia rettgeri; P. rettgeri Stamm 503010; substance alone
Ps. aeruginosa = assay: In vivo activity in Pseudomonas septicaemia of mice; set-up: species or system Mäusen; details: sc, 5 h
Description: Die in vivo Aktivitäten der erfindungsgemässen Kombinationen wurden mittels Pseudomonas-Septikämien an Mäusen getestet, wobei die Verabreichung eine Stunde, 3 Stunden -und 5 Stunden nach intraperitonealer Infektion erfolgte. Die Ergebnisse, die mit (1R)-1-(L-Norvalylamino)-ethylphosphonsäure und Nocardicin A erreicht wurden, sind in der folgenden Tabelle VI zusammengefasst.

[3] = Tabelle IV, Ps. aeruginosa (strain not named), substance alone
[4] = Tabelle IV, P. vulgaris (strain not named), substance alone
[5] = Tabelle IV, S. marcescens (strain not named), substance alone
[6] = NCTC2099, Stamm NCTC 2099, substance alone
[7] = NCTC2100, Stamm NCTC 2100, substance alone
[8] = Stamm NC1B 8295, substance alone
[9] = P. mirabilis Stamm 502010, substance alone
[10] = P. mirabilis Stamm 502012, substance alone
[11] = P. mirabilis Stamm 502015, substance alone
[12] = P. mirabilis Stamm 502038, substance alone
[13] = P. vulgaris Stamm 505030, substance alone
[14] = P. vulgaris Stamm 505031, substance alone
[15] = ATCC14756, S. marcescens Stamm ATCC 14756, substance alone
[16] = S. marcescens Stamm 542007, substance alone
[17] = S. marcescens Stamm 542010, substance alone
[18] = S. marcescens Stamm 542012, substance alone
[19] = S. marcescens Stamm 542017, substance alone

## CCC[C@H](N)C(=O)NCP(=O)(O)O [1-(L-Norvalylamino)-methylphosphonsäure]
Pseudomonas aeruginosa [1]; [3]
  MIC: > 128 µg/mL
Proteus vulgaris; [4]
  MIC: 45.2 µg/mL (≈ 215 µM)
Serratia marcescens; [5]
  MIC: 4 µg/mL (≈ 19 µM)

## N[C@H](CCOc1ccc(C(=O)C(=O)N[C@H]2CN([C@@H](C(=O)O)c3ccc(O)cc3)C2=O)cc1)C(=O)O [Nocardicin D]
Pseudomonas aeruginosa [2]; Stamm 511019, substance alone
  M.I.C.: >512 µg/mL
Pseudomonas aeruginosa [2]; Stamm 511027, substance alone
  M.I.C.: 512 µg/mL
Pseudomonas aeruginosa [2]; Stamm 511030, substance alone
  M.I.C.: 128 µg/mL

## CCC[C@H](N)C(=O)N[C@@H](C)P(=O)(O)O [(1R)-1-(L-Norvalylamino)-ethylphosphonsäure]
Pseudomonas aeruginosa [1]; [6]
  MIC: 256 µg/mL (≈ 1140 µM)
Pseudomonas aeruginosa [1]; [7]
  MIC: > 256 µg/mL
Pseudomonas aeruginosa [1]; Stamm 511004, substance alone
  MIC: > 256 µg/mL
Pseudomonas aeruginosa [1]; Stamm 511005, substance alone
  MIC: 4 µg/mL (≈ 17.8 µM)
Pseudomonas aeruginosa [1]; Stamm 511007, substance alone
  MIC: > 256 µg/mL
Pseudomonas aeruginosa [1]; Stamm 511012, substance alone
  MIC: > 256 µg/mL
Pseudomonas aeruginosa [1]; Stamm 511015, substance alone
  MIC: 128 µg/mL (≈ 571 µM)
Pseudomonas aeruginosa [1]; Stamm 511016, substance alone
  MIC: 32 µg/mL (≈ 143 µM)
Pseudomonas aeruginosa [1]; Stamm 511019, substance alone
  MIC: > 256 µg/mL
Pseudomonas aeruginosa [1]; Stamm 511026, substance alone
  MIC: > 256 µg/mL
Pseudomonas aeruginosa [1]; Stamm 511027, substance alone
  MIC: 45 µg/mL (≈ 201 µM)
Pseudomonas aeruginosa [1]; Stamm 511028, substance alone
  MIC: > 256 µg/mL
Pseudomonas aeruginosa [1]; Stamm 511029, substance alone
  MIC: > 256 µg/mL
Pseudomonas aeruginosa [1]; Stamm 511030, substance alone
  MIC: 256 µg/mL (≈ 1140 µM)
Pseudomonas aeruginosa [1]; Stamm 511032, substance alone
  MIC: 256 µg/mL (≈ 1140 µM)
Pseudomonas aeruginosa [1]; Stamm 511033, substance alone
  MIC: 256 µg/mL (≈ 1140 µM)
Pseudomonas aeruginosa [1]; Stamm 511036, substance alone
  MIC: 256 µg/mL (≈ 1140 µM)
Pseudomonas aeruginosa [1]; Stamm 511038, substance alone
  MIC: 256 µg/mL (≈ 1140 µM)
Pseudomonas aeruginosa [1]; Stamm 511041, substance alone
  MIC: 256 µg/mL (≈ 1140 µM)
Pseudomonas aeruginosa [1]; [8]
  MIC: 64 µg/mL (≈ 285 µM)
P. mirabilis; [9]
  MIC: 22.6 µg/mL (≈ 101 µM)
P. mirabilis; [10]
  MIC: 22.6 µg/mL (≈ 101 µM)
P. mirabilis; [11]
  MIC: 22.6 µg/mL (≈ 101 µM)
P. mirabilis; [12]
  MIC: 22.6 µg/mL (≈ 101 µM)
P. morganii
  MIC: 64 µg/mL (≈ 285 µM)
P. rettgeri
  MIC: 4 µg/mL (≈ 17.8 µM)
Proteus vulgaris; [13]
  MIC: 5.7 µg/mL (≈ 25.4 µM)
Proteus vulgaris; [14]
  MIC: 8 µg/mL (≈ 35.7 µM)
Serratia marcescens; [15]
  MIC: 1 µg/mL (≈ 4.46 µM)
Serratia marcescens; [16]
  MIC: 1 µg/mL (≈ 4.46 µM)
Serratia marcescens; [17]
  MIC: 1 µg/mL (≈ 4.46 µM)
Serratia marcescens; [18]
  MIC: 1 µg/mL (≈ 4.46 µM)
Serratia marcescens; [19]
  MIC: 1 µg/mL (≈ 4.46 µM)
Pseudomonas aeruginosa [2]; Stamm 511019, substance alone
  MIC: > 256 µg/mL
Pseudomonas aeruginosa [2]; Stamm 511027, substance alone
  MIC: 64 µg/mL
Pseudomonas aeruginosa [2]; Stamm 511030, substance alone
  MIC: 256 µg/mL
Ps. aeruginosa; read-out: CD50, Ps. aeruginosa 143724, s.c. 3 x (1, 3, 5 h after i.p. infection), substance alone
  ED50: > 200 mg/kg
Ps. aeruginosa; read-out: CD50, Ps. aeruginosa 143811, s.c. 3 x (1, 3, 5 h after i.p. infection), substance alone
  ED50: > 200 mg/kg
Ps. aeruginosa; read-out: CD50, Ps. aeruginosa BA, s.c. 3 x (1, 3, 5 h after i.p. infection), substance alone
  ED50: > 200 mg/kg
Ps. aeruginosa; read-out: CD50, Ps. aeruginosa M 7801, s.c. 3 x (1, 3, 5 h after i.p. infection), substance alone
  ED50: 135 mg/kg

## N[C@H](CCOc1ccc(/C(=N/O)C(=O)N[C@H]2CN([C@@H](C(=O)O)c3ccc(O)cc3)C2=O)cc1)C(=O)O [Nocardicin A]
Pseudomonas aeruginosa [1]; [6]
  MIC: 16 µg/mL (≈ 32 µM)
Pseudomonas aeruginosa [1]; [7]
  MIC: 32 µg/mL (≈ 63.9 µM)
Pseudomonas aeruginosa [1]; Stamm 511004, substance alone
  MIC: 32 µg/mL (≈ 63.9 µM)
Pseudomonas aeruginosa [1]; Stamm 511005, substance alone
  MIC: 4 µg/mL (≈ 7.99 µM)
Pseudomonas aeruginosa [1]; Stamm 511007, substance alone
  MIC: 16 µg/mL (≈ 32 µM)
Pseudomonas aeruginosa [1]; Stamm 511012, substance alone
  MIC: 32 µg/mL (≈ 63.9 µM)
Pseudomonas aeruginosa [1]; Stamm 511015, substance alone
  MIC: 16 µg/mL (≈ 32 µM)
Pseudomonas aeruginosa [1]; Stamm 511016, substance alone
  MIC: 64 µg/mL (≈ 128 µM)
Pseudomonas aeruginosa [1]; Stamm 511019, substance alone
  MIC: 64 µg/mL (≈ 128 µM)
Pseudomonas aeruginosa [1]; Stamm 511026, substance alone
  MIC: 181 µg/mL (≈ 362 µM)
Pseudomonas aeruginosa [1]; Stamm 511027, substance alone
  MIC: 8 µg/mL (≈ 16 µM)
Pseudomonas aeruginosa [1]; Stamm 511028, substance alone
  MIC: 16 µg/mL (≈ 32 µM)
Pseudomonas aeruginosa [1]; Stamm 511029, substance alone
  MIC: 256 µg/mL (≈ 512 µM)
Pseudomonas aeruginosa [1]; Stamm 511030, substance alone
  MIC: 16 µg/mL (≈ 32 µM)
Pseudomonas aeruginosa [1]; Stamm 511032, substance alone
  MIC: 32 µg/mL (≈ 63.9 µM)
Pseudomonas aeruginosa [1]; Stamm 511033, substance alone
  MIC: 32 µg/mL (≈ 63.9 µM)
Pseudomonas aeruginosa [1]; Stamm 511036, substance alone
  MIC: 16 µg/mL (≈ 32 µM)
Pseudomonas aeruginosa [1]; Stamm 511038, substance alone
  MIC: 256 µg/mL (≈ 512 µM)
Pseudomonas aeruginosa [1]; Stamm 511041, substance alone
  MIC: 32 µg/mL (≈ 63.9 µM)
Pseudomonas aeruginosa [1]; [8]
  MIC: > 256 µg/mL
Pseudomonas aeruginosa [1]; [3]
  MIC: 8 µg/mL (≈ 16 µM)
P. mirabilis; [9]
  MIC: 8 µg/mL (≈ 16 µM)
P. mirabilis; [10]
  MIC: 8 µg/mL (≈ 16 µM)
P. mirabilis; [11]
  MIC: 4 µg/mL (≈ 7.99 µM)
P. mirabilis; [12]
  MIC: 32 µg/mL (≈ 63.9 µM)
P. morganii
  MIC: 8 µg/mL (≈ 16 µM)
P. rettgeri
  MIC: 8 µg/mL (≈ 16 µM)
Proteus vulgaris; [13]
  MIC: 4 µg/mL (≈ 7.99 µM)
Proteus vulgaris; [14]
  MIC: 32 µg/mL (≈ 63.9 µM)
Proteus vulgaris; [4]
  MIC: 64 µg/mL (≈ 128 µM)
Serratia marcescens; [15]
  MIC: 8 µg/mL (≈ 16 µM)
Serratia marcescens; [16]
  MIC: 11.3 µg/mL (≈ 22.6 µM)
Serratia marcescens; [17]
  MIC: 11.3 µg/mL (≈ 22.6 µM)
Serratia marcescens; [18]
  MIC: 8 µg/mL (≈ 16 µM)
Serratia marcescens; [19]
  MIC: 16 µg/mL (≈ 32 µM)
Serratia marcescens; [5]
  MIC: 16 µg/mL (≈ 32 µM)
Ps. aeruginosa; Ps. aeruginosa 143724, s.c. 3 x (1, 3, 5 h after i.p. infection), substance alone, read-out: CD50 (the source's name)
  ED50: > 50 mg/kg
Ps. aeruginosa; Ps. aeruginosa 143811, s.c. 3 x (1, 3, 5 h after i.p. infection), substance alone, read-out: CD50 (the source's name)
  ED50: > 50 mg/kg
Ps. aeruginosa; Ps. aeruginosa BA, s.c. 3 x (1, 3, 5 h after i.p. infection), substance alone, read-out: CD50 (the source's name)
  ED50: 43 mg/kg
Ps. aeruginosa; Ps. aeruginosa M 7801, s.c. 3 x (1, 3, 5 h after i.p. infection), substance alone, read-out: CD50 (the source's name)
  ED50: > 50 mg/kg
